Source: article PMC9602571, “Discovery of a Dual SENP1 and SENP2 Inhibitor” (International Journal of Molecular Sciences, 2022)
Like-named read-outs stand apart in the source and are kept apart here.

How the values were obtained:
Format in all cases: biochemical
[1] = target: T1, UCHL1 (Homo sapiens, UniProt P09936); assay: UCHL1 activity assay, Ubiquitin-AMC substrate; settings: n = 2
T1 construct: purchased SignalChem U22-30H
T1 sequence (P09936 1-223): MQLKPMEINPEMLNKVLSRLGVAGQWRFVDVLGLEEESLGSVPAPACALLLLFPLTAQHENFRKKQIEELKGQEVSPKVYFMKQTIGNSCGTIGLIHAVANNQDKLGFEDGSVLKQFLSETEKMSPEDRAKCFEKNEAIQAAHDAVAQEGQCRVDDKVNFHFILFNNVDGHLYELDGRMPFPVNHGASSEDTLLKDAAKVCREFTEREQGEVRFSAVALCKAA
Procedure: (§1) IC50 measurements were conducted at Reaction Biology Corporation, Malvern, PA, USA, with two replications using 10 concentrations starting at 200 μM with three-fold dilution. Curve fits were performed where the enzyme activities at the highest concentration of compounds were less than 65%. UCHL1 II was used as a control inhibitor. The procedure was performed analogous to the fluorogenic SENP2 assay described in 3.3.2. using the UCHL1 enzyme (SignalChem Cat# U22-30H) and Ubiquitin-AMC substrate (Enzo Cat# BML-SE211-0025). The final reaction conditions contained 0.2 nM UCHL1 and 100 nM Ubiquitin-AMC.

[2] = target: T2, SENP1 (Homo sapiens, UniProt Q9P0U3); assay: Mode of inhibition study, SENP1 and SUMO1-AMC kinetic measurement
T2 construct: Human recombinant, His6-SENP1 Catalytic Domain; His6 (N); purchased Boston Biochem (Bio-Techne AG) E-700
T2 sequence (Q9P0U3 450-613 limits assumed): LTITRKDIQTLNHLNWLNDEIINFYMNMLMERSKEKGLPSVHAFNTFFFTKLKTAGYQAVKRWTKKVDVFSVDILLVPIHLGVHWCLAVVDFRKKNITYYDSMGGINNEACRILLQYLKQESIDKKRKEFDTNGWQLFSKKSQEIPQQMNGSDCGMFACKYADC
Procedure: A mode of inhibition study with 11 was performed by kinetic measurement with SENP1 and SUMO1-AMC employing five different substrate concentrations (Figure 4). The IC50 values […] slightly by lowering the SUMO1-AMC substrate concentration from 1000 nM to 62.5 nM, indicating a slight binding preference to the SUMO1-SENP1 complex (Figure 4A).
IC50 measurements were performed with at least two replications using eight concentrations starting at 200 μM and for the fragments at 500 μM with three-fold dilution. Human recombinant, His6-SENP1 Catalytic Domain (Boston Biochem Cat# E-700, Bio-Techne AG, Zug, Switzerland) was prepared in reaction buffer (50 mM HEPES, 150 mM NaCl, 0.5 mM EDTA, 1 mM DTT, pH 7.5, 0.01% CHAPS). To this solution, a 20 mM or 50 mM inhibitor stock solution in DMSO was added and the mixture was incubated for 15 min at ambient temperature. The substrate SUMO1/2 or 3-AMC (SUMO1-AMC; Boston Biochem Cat# UL-551; SUMO2-AMC; Boston Biochem Cat# UL-758; SUMO3-AMC; Boston Biochem Cat# UL-768; Bio-Techne AG, Zug, Switzerland) was delivered to a 96 well-plate to initiate the reaction. The enzyme activities were monitored (Ex/Em = 355/460 nm) as a time-course measurement of the increase in fluorescence signal from SUMO1/2 or 3-AMC for 60 min at 25 °C. The data were analyzed by taking the slope (signal/time) of the linear portion of measurement. The slope was calculated using Excel and the curve fits were performed using GraphPad Prism7 with a four-parameter least-squares fit. The final reaction conditions contained 0.02 nM SENP1 and 300 nM SUMO1/2 or 3-AMC).

[3] = target: T2, SENP1; assay: Fluorogenic SENP1 assay, SUMO1-AMC substrate
Procedure: Human recombinant, His6-SENP1 Catalytic Domain (Boston Biochem Cat# E-700, Bio-Techne AG, Zug, Switzerland) was prepared in reaction buffer (50 mM HEPES, 150 mM NaCl, 0.5 mM EDTA, 1 mM DTT, pH 7.5, 0.01% CHAPS). To this solution, a 20 mM or 50 mM inhibitor stock solution in DMSO was added and the mixture was incubated for 15 min at ambient temperature. […] The slope was calculated using Excel and the curve fits were performed using GraphPad Prism7 with a four-parameter least-squares fit. The final reaction conditions contained 0.02 nM SENP1 and 300 nM SUMO1/2 or 3-AMC).

[4] = target: T3, Ataxin-3 (Homo sapiens, UniProt P54252); assay: Ataxin-3 activity assay, Ubiquitin-AMC substrate; settings: n = 2
T3 construct: purchased BPS 80399
T3 sequence (P54252 whole entry): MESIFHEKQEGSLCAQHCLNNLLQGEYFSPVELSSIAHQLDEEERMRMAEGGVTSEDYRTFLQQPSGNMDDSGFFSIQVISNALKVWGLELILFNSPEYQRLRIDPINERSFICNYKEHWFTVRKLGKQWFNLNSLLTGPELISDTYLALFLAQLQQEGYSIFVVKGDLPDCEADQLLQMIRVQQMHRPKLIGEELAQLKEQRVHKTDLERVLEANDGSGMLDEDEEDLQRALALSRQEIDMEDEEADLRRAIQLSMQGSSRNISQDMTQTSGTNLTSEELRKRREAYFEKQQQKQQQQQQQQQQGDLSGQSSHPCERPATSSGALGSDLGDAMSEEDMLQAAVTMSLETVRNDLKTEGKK
Procedure: as §1, with “the Ataxin-3” for “the UCHL1”, “enzyme (BPS” for “enzyme (SignalChem”, “Cat# 80399)” for “Cat# U22-30H)”, “contained 500” for “contained 0.2”, “nM Ataxin-3” for “nM UCHL1”

[5] = target: T2, SENP1; assay: Fluorogenic SENP1 assay, SUMO3-AMC substrate; settings: n = 2
Procedure: Human recombinant, His6-SENP1 Catalytic Domain (Boston Biochem Cat# E-700, Bio-Techne AG, Zug, Switzerland) was prepared in reaction buffer (50 mM HEPES, 150 mM NaCl, 0.5 mM EDTA, 1 mM DTT, pH 7.5, 0.01% CHAPS). To this solution, a 20 mM or 50 mM inhibitor stock solution in DMSO was added and the mixture was incubated for 15 min at ambient temperature. […] The data were analyzed by taking the slope (signal/time) of the linear portion of measurement. The slope was calculated using Excel and the curve fits were performed using GraphPad Prism7 with a four-parameter least-squares fit. The final reaction conditions contained 0.02 nM SENP1 and 300 nM SUMO1/2 or 3-AMC).

With `O=C(Cn1nnc(-c2ccccc2)n1)N1c2ccccc2NC(=O)C12CCCC2` [Compound 11, 1′-[2-(5-Phenyl-2H-1,2,3,4-tetrazol-2-yl)acetyl]-3′,4′-dihydro-1′H-spiro[cyclopentane-1,2′-quinoxalin]-3′-one] as the compound, how does the IC50 [1] read?
Its IC50 is 77 µM.

What about the “alpha (mixed inhibition model)” value ([2]; global Michaelis-Menten fit) of the same compound?
The value was 0.23.

And the Ki ([2]; global Michaelis-Menten fit, GraphPad Prism, read-out: KI (mixed inhibition model))?
Its Ki is 10.6 µM.

What about the Ki ([2]; global fit, unit inferred, read-out: Ki (Figure 4B)) of the same compound?
The Ki was 10.6 µM.

And the IC50 ([2]; substrate 62.5 nM, read-out: IC50 at SUMO1-AMC 62.5 nM)?
Its IC50 is 6.65 µM.

What about the IC50 ([2]; substrate 125 nM, read-out: IC50 at SUMO1-AMC 125 nM) of the same compound?
Its IC50 is 5.82 µM.

What about the IC50 ([2]; substrate 250 nM, read-out: IC50 at SUMO1-AMC 250 nM) of the same compound?
The IC50 was 4.72 µM.

What about the IC50 ([2]; substrate 500 nM, read-out: IC50 at SUMO1-AMC 500 nM) of the same compound?
Its IC50 is 4.04 µM.

What about the IC50 ([2]; substrate 1000 nM, read-out: IC50 at SUMO1-AMC 1000 nM) of the same compound?
Its IC50 is 3.15 µM.

And the IC50 ([3]; SUMO1-AMC 300 nM, 0.02 nM SENP1, interval in parentheses, read-out: IC50 SENP1)?
The IC50 was 8.6 µM.

What about the IC50 ([3]; screening library samples, SUMO1-AMC, read-out: IC50 SENP1 of hit molecules) of the same compound?
Its IC50 is 5.1 µM.

What about the IC50 [4] of the same compound?
The IC50 was 68 µM.

What about the IC50 [5] of the same compound?
Its IC50 is 59 µM.
